Measured values: US20230142705A1, “USE OF ANTI-AGING GLYCOPEPTIDES FOR INHIBITION OF IMMUNE REJECTION OF A GRAFT” (PROTOKINETIX INC., priority 2020, published 2023)

Columns and labels:
[1] = test system: photoreceptor precursor cells (PPCs); assay: Survival of AAGP-pretreated photoreceptor precursor cells after subretinal transplantation into rabbits with retinal degeneration; type: in vivo, Rabbit (Oryctolagus cuniculus); conditions: PPCs pre-treated in vitro 24 hours with 4 mg/mL; 6 months post subretinal transplantation; cyclosporine-A discontinued two weeks post transplantation; qualitative visual examination of flatmounts
Protocol: The objective of this study was to determine the effect of 24-hour pretreatment with anti-aging glycoprotein (AAGP™) at 4 mg/mL on the long-term (6 months) survival and functional activity of photoreceptor precursor cells (PPCs) following their subretinal transplantation into the eye of rabbits with retinal degeneration.
PPCs were generated in vitro from pluripotent human embryonic stem cells (hESCs) and incubated for 24 hours in media alone (control group) or media containing 4 mg/mL AAGP™ Following incubation, treated and untreated PPCs were labeled and injected into the subretinal space of the eye of immunosuppressed rabbits with induced retinal degeneration (4-5 rabbits/group). Animals were euthanized 6 month later, retinas were collected, and cell survival was determined in excised retinal flatmounts by imaging with confocal laser scanning system. The functional activity of transplanted cells was assessed by immunostaining for synaptic (Ribeye and Bassoon) and photoreceptor markers (Arrestin and Blue Opsin).
Retinal degeneration was induced on Day 1 of the study. […]

CD4+ T cells = assay: Immunohistochemistry to detect CD4+ T cells in conjunctival epithelium of dry eye disease-induced mice; type: in vivo, mouse; conditions: bilateral topical administration of 5%; for CD4+ T cells infiltration into the conjunctival epithelium: DS-induced mice, result in words
Protocol: Enucleated mouse eyes with intact conjunctiva were suspended in optimal cutting temperature (OCT) compound and flash frozen in liquid nitrogen. Immunohistochemistry was performed on six-micrometer frozen sections to detect and count the number of cells in conjunctival epithelium that stained positively for CD4 (clone H129.9, 10 μg/mL; BD Biosciences® cat #553647), a biotinylated secondary antibody (BD Pharmingen® cat #559286), and NovaRED® peroxidase (Vector Laboratories® cat #SK-4800). Secondary antibody alone and anti-rat isotype (clone A110-2; BD Biosciences® cat #553992) controls were also examined. Positively stained cells were counted in the GC-rich area of the conjunctiva using image analysis software (Nikon NIS Elements® software) using a 10×objective. T-cell detection and quantification was performed on Arms 1, 2, 4, and 5 only. CD4+ T cells infiltration into the conjunctival epithelium is a primary clinical indicator of dry eye disease (DED), which is used here as a proxy to study immune cell infiltration into diseased tissue suffering from […].

[2] = DS5 mice, conjunctival epithelium

C[C@H](NC(=O)[C@H](C)NC(=O)[C@@H](N)CCCCNC(=O)C(F)(F)C1(O)O[C@H](CO)[C@H](O)[C@H](O)[C@H]1O)C(=O)O.Cl (stereo partly drawn) [AAGP™]
cell survival of transplanted PPCs [1]: substantial increase
T-Cell Density, 25% Percentile (CD4+ T cells; [2]): 0.3767
T-Cell Density, 75% Percentile (CD4+ T cells; [2]): 0.7663
T-Cell Density, Maximum (CD4+ T cells; [2]): 1.152
T-Cell Density, Mean (CD4+ T cells; [2]): 0.5644
T-Cell Density, Median (CD4+ T cells; [2]): 0.4907
T-Cell Density, Minimum (CD4+ T cells; [2]): 0.2307
CD4+ T cells infiltration into the conjunctival epithelium (CD4+ T cells): suppresses T-cell response
CD4+ T cells infiltration into the conjunctival epithelium (CD4+ T cells; listed as PKX-001): significantly reduced
